Active and inactive are the calls of the source. The rule behind the calls is not given here.

For the assay, the system named is Osteoblast. Put plainly: Induction of mineralization in Sprague-Dawley rat calvaria derived primary osteoblast after 7 days by Alizarin Red S staining. Type of assay: functional, cell-based.

For the compound `COc1ccc(-c2coc3cc(O)ccc3c2=O)cc1`, the result was Active.

As to `COc1ccc2c(=O)c(-c3ccc(O)cc3)coc2c1`, the result was Active.

For `COc1cc(O)c2c(=O)c(-c3ccc(O)cc3O)coc2c1`, the outcome was Active.

Consider `COc1ccc(-c2coc3cc(O)ccc3c2=O)cc1OC`, for which the result was Active.

For the origin of these results see ChEMBL document CHEMBL1143340, “Osteogenic activity of constituents from Butea monosperma” (Bioorg Med Chem Lett, 2009).
